Laboratory results reported in ChEMBL document CHEMBL1201862, “PubChem BioAssay data set” (2004).
Active and inactive are the calls of the source.

What was measured:
[1] = test system: HEK293; experiment: cells; format: functional, cell-based; settings: Homo sapiens
[2] = Shn3 3'UTR reporter inhibitors, dose response, cell-based, Clone20 osteoblasts, firefly luciferase, cherry-picked (AID 624132); format: functional;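 further: firefly luciferase luminescence from reporter carrying the Shn3 3'UTR in osteoblasts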
[3] = biological target: T1, Nucleotide-binding oligomerization domain-containing protein 1 (Homo sapiens, UniProt Q9Y239); experiment: NOD1 signaling inhibitors, SAR follow-up, revised (AID 2333); format: functional
T1 sequence (Q9Y239 whole entry): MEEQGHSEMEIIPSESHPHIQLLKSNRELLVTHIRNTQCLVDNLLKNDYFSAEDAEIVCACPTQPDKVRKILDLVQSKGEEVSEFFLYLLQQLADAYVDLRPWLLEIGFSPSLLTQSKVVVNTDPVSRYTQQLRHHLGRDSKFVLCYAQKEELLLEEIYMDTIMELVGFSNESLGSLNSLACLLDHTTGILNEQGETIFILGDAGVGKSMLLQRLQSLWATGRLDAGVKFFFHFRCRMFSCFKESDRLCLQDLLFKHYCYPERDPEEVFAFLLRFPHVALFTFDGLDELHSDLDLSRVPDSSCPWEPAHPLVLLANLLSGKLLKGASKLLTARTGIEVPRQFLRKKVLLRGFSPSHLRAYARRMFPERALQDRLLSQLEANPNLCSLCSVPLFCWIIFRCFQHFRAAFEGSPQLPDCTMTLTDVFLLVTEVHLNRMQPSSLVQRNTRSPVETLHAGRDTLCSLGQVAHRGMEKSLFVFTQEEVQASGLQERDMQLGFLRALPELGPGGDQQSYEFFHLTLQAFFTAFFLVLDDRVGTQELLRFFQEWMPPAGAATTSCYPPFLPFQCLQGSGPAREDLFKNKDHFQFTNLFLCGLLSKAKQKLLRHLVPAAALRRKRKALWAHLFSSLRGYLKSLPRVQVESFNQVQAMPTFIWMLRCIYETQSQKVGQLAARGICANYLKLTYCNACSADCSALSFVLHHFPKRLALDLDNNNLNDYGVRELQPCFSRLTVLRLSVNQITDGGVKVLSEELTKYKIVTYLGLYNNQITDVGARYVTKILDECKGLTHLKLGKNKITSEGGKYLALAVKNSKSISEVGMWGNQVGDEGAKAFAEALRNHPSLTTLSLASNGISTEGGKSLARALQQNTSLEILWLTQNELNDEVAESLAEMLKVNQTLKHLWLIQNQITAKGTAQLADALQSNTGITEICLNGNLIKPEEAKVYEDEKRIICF

[4] = test system: HEK293; experiment: cells; settings: Homo sapiens
[5] = HepG2 cell cytotoxicity, dose response, cytotoxicity control for Shn3 inhibitor project, CellTiter-Glo, cherry-picked (AID 624134); format: functional, cell-based
[6] = test system: HEK293; experiment: NOD1 signaling inhibitors, primary screen, cell-based, luminescence, uHTS (AID 1578); format: functional; settings: Homo sapiens
[7] = biological target: Tumor necrosis factor (Homo sapiens, UniProt P01375); experiment: TNFa-triggered NF-kB activation inhibitors, SAR follow-up, cell-based, revised (AID 2337); format: functional
[8] = test system: HEK293; experiment: NOD2 signaling inhibitors in MDP-stimulated cells, cell-based, uHTS, luminescence (AID 2001); format: functional; settings: Homo sapiens
[9] = control 3'UTR Renilla luciferase suppression, dose response, counter-screen for Shn3 inhibitor project, cell-based, Clone20-Shn3RL, cherry-picked (AID 624133); format: functional
[10] = test system: HEK293; experiment: cells; format: functional, cell-based; settings: Homo sapiens; remark: listed apart in the source
[11] = biological target: Prothrombin (Homo sapiens, UniProt P00734); experiment: Thrombin 1536 HTS Dose Response Confirmation. [Related pubchem assays: 1046 (Thrombin 1536 HTS; hits were confirmed in this assay)]; format: functional
[12] = biological target: T2, Coagulation factor XII (Homo sapiens, UniProt P00748); format: functional;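 further: activated factor XIIa alpha cleaving a fluorogenic AMC peptide substrate; inhibitor potency from loss of enzyme activity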
T2 sequence (P00748 whole entry): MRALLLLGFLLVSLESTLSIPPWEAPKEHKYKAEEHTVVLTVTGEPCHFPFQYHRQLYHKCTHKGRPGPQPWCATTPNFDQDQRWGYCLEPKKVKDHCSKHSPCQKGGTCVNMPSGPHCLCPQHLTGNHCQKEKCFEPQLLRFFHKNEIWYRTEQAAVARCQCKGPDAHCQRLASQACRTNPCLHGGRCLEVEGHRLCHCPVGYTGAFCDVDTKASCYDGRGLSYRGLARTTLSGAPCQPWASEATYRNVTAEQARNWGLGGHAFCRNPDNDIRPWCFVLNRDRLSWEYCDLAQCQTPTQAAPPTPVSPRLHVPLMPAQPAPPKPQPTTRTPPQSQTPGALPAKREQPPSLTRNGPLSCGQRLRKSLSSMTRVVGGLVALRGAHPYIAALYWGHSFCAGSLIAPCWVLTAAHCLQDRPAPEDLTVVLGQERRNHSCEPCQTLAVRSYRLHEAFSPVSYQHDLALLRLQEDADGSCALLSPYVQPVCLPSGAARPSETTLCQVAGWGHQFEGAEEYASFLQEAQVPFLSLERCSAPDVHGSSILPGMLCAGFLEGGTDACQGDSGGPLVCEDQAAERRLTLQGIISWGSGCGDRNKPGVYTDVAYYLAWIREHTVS

[13] = biological target: Cytochrome P450 3A4 (Homo sapiens, UniProt P08684);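 further: CYP3A4 tested as one member of a cytochrome P450 panel screen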
[14] = biological target: T3, Replicative DNA helicase DnaB (Mycobacterium tuberculosis, UniProt P9WMR3); experiment: DnaB intein splicing inhibitors, dose response, biochemical, cell-free fluorescence (AID 449749); format: functional
T3 sequence (P9WMR3 whole entry): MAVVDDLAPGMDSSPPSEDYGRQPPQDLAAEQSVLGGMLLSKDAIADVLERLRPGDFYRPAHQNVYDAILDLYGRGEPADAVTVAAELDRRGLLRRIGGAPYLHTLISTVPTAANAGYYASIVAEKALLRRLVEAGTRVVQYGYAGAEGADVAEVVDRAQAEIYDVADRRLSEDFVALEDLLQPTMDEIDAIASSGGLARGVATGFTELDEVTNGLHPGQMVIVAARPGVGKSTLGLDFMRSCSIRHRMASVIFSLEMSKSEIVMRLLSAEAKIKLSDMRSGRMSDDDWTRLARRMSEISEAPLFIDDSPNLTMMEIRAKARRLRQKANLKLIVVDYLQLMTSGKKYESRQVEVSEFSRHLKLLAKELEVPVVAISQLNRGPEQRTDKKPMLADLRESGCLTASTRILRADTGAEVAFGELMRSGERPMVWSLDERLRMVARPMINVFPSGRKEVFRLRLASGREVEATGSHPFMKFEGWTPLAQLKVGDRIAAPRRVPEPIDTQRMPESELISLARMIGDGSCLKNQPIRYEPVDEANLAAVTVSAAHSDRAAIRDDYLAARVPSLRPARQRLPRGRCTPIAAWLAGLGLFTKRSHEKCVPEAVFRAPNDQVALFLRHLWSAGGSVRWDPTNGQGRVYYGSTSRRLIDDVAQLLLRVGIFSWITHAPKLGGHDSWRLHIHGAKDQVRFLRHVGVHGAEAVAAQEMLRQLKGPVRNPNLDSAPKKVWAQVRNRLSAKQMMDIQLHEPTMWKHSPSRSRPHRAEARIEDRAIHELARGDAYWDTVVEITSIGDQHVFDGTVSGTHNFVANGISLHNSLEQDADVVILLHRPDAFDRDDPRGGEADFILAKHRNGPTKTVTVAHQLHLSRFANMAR

[15] = biological target: Nonstructural protein 1 (Influenza A virus, UniProt Q194T2); format: functional, Influenza A virus (A/California/07/2009(H1N1))
[16] = biological target: T4, Protein RecA (Mycobacterium tuberculosis, UniProt P9WHJ3); experiment: Fluorescence Cell-Free Homogeneous Dose Retest to Identify Inhibitors of RecA-Intein Splicing Activity. [Related pubchem assays (depositor defined):AID2097, AID2223, AID489010, AID492950]; format: functional
T4 sequence (P9WHJ3 whole entry): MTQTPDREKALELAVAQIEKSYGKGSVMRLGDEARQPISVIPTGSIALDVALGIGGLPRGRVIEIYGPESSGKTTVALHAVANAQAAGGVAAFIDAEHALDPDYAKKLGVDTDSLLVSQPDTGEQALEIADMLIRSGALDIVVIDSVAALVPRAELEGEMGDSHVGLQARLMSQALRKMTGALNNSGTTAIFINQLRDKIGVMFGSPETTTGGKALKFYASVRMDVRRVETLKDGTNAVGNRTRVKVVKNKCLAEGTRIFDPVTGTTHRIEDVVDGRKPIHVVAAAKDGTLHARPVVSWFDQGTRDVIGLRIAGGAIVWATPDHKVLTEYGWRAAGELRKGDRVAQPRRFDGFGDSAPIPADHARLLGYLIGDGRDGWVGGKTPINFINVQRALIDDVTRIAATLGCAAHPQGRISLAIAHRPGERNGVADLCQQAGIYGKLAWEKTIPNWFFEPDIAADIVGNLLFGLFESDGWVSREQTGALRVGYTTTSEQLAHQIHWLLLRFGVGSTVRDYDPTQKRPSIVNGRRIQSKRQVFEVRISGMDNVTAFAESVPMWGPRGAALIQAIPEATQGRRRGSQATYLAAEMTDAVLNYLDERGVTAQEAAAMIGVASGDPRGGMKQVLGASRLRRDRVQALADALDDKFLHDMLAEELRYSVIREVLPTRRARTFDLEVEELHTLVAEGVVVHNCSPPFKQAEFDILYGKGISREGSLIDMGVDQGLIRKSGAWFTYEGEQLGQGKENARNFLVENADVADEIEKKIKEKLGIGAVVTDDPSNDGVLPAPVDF

[17] = biological target: SUMO-activating enzyme (Homo sapiens, UniProt Q9UBT2); experiment: SUMOylation inhibitor hit validation, confirmation, SUMOylation inhibitor project, biochemical, AlphaScreen (AID 2018); format: functional
[18] = biological target: Cytochrome P450 2D6 (Homo sapiens, UniProt P10635);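 further: CYP2D6 member of a cytochrome P450 panel assay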
[19] = test system: HeLa; experiment: HeLa cell cytotoxicity, dose response, cytotoxicity control for MITF activator project, CellTiter-Glo luminescence, cherry-pick samples (AID 540259); format: functional, cell-based; settings: Homo sapiens
[20] = biological target: Glyceraldehyde-3-phosphate dehydrogenase (Homo sapiens, UniProt P04406)
[21] = biological target: T5, Alkaline phosphatase, tissue-nonspecific isozyme (Homo sapiens, UniProt P05186); experiment: human TNAP enzyme inhibitors, SAR follow-up, biochemical, luminescent, dose response (AID 1056)
T5 sequence (P05186 whole entry): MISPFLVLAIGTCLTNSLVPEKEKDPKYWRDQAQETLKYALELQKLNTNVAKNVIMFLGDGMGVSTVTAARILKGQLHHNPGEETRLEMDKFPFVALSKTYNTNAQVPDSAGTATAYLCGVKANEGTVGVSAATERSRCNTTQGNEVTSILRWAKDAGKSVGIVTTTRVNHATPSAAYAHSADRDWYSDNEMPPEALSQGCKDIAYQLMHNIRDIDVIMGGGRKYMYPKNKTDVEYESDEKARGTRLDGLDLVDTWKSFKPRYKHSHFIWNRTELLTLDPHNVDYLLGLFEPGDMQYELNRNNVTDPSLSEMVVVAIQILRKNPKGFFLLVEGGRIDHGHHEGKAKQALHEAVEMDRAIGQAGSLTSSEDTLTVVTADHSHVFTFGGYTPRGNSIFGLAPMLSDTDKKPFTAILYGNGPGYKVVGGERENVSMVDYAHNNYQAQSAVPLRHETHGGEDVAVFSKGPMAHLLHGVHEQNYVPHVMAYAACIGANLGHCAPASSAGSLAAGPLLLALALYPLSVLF

Sequence of Cytochrome P450 3A4 (P08684 whole entry): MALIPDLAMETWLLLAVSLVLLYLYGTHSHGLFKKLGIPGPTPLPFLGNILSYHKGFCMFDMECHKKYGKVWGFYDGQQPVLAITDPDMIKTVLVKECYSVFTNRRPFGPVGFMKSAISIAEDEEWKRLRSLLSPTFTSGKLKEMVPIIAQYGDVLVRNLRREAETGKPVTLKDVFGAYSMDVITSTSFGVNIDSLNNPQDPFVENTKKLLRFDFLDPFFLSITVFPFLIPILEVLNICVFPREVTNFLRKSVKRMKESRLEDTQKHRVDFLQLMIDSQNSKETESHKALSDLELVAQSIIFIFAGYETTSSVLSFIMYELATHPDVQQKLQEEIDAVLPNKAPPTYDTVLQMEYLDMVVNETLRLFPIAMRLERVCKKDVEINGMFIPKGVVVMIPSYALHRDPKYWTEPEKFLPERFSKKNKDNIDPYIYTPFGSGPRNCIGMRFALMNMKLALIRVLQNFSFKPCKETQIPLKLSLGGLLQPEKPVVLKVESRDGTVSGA
Sequence of Glyceraldehyde-3-phosphate dehydrogenase (P04406 whole entry): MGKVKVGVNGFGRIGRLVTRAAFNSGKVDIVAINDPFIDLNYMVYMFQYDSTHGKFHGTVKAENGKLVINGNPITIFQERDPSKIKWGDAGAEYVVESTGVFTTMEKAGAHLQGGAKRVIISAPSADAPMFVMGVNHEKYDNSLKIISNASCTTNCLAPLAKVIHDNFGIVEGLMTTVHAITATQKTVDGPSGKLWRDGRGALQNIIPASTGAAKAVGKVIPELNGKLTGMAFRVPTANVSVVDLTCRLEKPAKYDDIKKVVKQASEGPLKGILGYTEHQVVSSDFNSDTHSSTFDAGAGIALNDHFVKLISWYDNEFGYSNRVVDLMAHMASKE
Sequence of Nonstructural protein 1 (Q194T2 whole entry): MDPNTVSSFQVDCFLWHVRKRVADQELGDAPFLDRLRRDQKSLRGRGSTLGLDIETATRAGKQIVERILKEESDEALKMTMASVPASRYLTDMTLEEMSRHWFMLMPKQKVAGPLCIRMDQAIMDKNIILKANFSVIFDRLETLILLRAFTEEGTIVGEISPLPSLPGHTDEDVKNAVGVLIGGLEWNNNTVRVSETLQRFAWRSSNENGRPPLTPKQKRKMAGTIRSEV
Sequence of Tumor necrosis factor (P01375 whole entry): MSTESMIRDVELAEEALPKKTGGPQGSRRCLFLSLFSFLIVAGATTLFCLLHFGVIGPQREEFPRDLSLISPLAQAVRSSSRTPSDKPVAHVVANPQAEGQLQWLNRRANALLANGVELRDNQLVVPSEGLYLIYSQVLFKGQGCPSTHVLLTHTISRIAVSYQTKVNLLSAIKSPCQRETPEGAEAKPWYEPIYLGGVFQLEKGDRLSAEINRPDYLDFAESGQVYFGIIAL
Sequence of Cytochrome P450 2D6 (P10635 whole entry): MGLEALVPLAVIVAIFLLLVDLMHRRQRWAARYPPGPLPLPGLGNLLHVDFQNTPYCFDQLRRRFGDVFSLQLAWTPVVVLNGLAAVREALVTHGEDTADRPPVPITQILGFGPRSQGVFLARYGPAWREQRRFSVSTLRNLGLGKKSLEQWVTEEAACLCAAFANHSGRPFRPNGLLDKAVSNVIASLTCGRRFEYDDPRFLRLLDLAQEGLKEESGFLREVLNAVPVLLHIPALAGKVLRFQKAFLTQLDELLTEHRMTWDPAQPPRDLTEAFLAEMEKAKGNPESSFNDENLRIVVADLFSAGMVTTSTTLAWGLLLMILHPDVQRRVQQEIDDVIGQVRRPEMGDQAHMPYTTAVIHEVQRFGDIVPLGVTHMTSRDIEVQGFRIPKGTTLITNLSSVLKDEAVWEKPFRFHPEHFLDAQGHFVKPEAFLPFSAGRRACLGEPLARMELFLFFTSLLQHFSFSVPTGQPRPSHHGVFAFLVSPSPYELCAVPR
Sequence of SUMO-activating enzyme (Q9UBE0 whole entry): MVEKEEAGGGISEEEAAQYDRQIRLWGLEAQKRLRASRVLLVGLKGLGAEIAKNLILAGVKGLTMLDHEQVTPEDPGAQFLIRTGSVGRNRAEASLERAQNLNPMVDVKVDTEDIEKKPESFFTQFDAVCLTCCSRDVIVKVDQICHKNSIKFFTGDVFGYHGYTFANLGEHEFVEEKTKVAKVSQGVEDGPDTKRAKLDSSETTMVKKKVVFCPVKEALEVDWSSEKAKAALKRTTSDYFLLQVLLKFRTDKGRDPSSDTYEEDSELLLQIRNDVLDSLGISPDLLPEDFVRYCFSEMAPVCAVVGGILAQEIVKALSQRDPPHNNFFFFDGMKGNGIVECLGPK
Sequence of SUMO-activating enzyme (Q9UBT2 whole entry): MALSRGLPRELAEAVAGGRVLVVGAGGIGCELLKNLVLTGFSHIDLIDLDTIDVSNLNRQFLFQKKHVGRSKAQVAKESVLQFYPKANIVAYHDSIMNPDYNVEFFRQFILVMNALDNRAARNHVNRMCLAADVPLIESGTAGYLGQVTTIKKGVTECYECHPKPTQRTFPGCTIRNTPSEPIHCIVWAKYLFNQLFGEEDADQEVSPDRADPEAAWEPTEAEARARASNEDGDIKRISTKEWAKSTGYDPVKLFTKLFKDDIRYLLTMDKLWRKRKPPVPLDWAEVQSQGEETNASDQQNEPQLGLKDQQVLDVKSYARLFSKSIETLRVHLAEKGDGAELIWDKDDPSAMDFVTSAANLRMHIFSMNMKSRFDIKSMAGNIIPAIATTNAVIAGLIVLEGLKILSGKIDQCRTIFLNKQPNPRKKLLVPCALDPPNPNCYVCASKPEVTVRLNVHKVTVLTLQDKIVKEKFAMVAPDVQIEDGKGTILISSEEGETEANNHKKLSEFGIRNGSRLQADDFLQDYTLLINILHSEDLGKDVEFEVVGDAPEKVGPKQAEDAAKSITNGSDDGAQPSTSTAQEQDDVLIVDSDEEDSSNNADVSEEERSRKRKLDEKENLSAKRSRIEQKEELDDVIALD

## COCC1CCN(C(=O)c2cc(COc3ccc4ncccc4c3)on2)CC1
[1]
  IC50: > 20 µM (inactive)
[2]
  AC50: 2.7 µM (active)
[3]
  IC50: 3.13 µM (active)
[4]
  IC50: > 20 µM (inactive)
[5]
  AC50: 42.1 µM (active)
[6]
  EC50: 2.31 µM (active)
[7]
  IC50: 4.81 µM (active)
[8]
  IC50: 14.8 µM (inactive)
[9]
  AC50: 10.5 µM (active)
[10]
  IC50: 8.36 µM (active)

## CN(Cc1ccccn1)Cc1nc(-c2ccc(Cl)cc2)no1
[11]
  IC50: > 50 µM (not active)
[12]
  IC50: > 50 µM (inactive)

## COc1ccc(C(=O)N2CCC3(CCN(Cc4nccs4)CC3)CC2)cc1
[13]
  AC50: inconclusive

## COc1ccc2nc3ccccc3nc2c1N
[12]
  IC50: > 50 µM (inactive)
[14]
  AC50: 40.1 µM (active)
[15]
  IC50: 32.5 µM (active)
[16]
  EC50: 22.1 µM (active)

## O=C(c1cnccn1)N1CCC2(CC1)CCN(c1ncccn1)CC2
[13]
  AC50: inconclusive

## O=C(Nc1ccc(Br)cc1)c1ccc(N2C(=O)C3CC=C(Cl)CC3C2=O)cc1 (centres undefined)
[17]
  IC50: 49.7 µM (active)

## CC1=C(C(=O)OCC2CCCO2)C(c2ccc(C)o2)C2=C(O)CC(c3ccc(F)cc3)CC2=N1 (centres undefined)
[12]
  IC50: > 50 µM (inactive)

## O=C(NNS(=O)(=O)c1ccc(Cl)cc1)C1CCN(Cc2ccccc2)CC1
[13]
  AC50: inconclusive
[18]
  AC50: 1 µM (inconclusive)

## O=C(N=Nc1c(O)n(Cc2ccccc2)c2ccccc12)c1ccc(O)cc1
[19]
  AC50: 39.7 µM (active)

## O=C(O)c1ccc(-c2ccccc2Cl)o1
[20]
  IC50: > 100 µM (not active)
[21]
  IC50: > 100 µM (inactive)

## CC/C(=N\NC(=O)c1csc(C)c1C)c1cccs1
[19]
  AC50: > 350 µM (inactive)

## CCOc1ccc(C)cc1S(=O)(=O)Nc1cccnc1
[20]
  IC50: > 10 µM (inconclusive)
[21]
  IC50: 0.858 µM (active)

## Cc1cc(C(=O)NCCc2ccc(O)c(O)c2)oc1C
[21]
  IC50: 57.3 µM (active)
